Results on 9 compounds are retold here after ChEMBL document CHEMBL3407354, “Recent advances in the development of acetyl-CoA carboxylase (ACC) inhibitors for the treatment of metabolic disease” (J Med Chem, 2015).

For data set [1], the target named is T1, Acetyl-CoA carboxylase 2 (Homo sapiens, UniProt O00763). The data set can be described thus: Inhibition of human ACC2 assessed as malonyl CoA formation by NADH-linked kinetic method.
The nature of data set [2]: Intrinsic clearance in human microsomes. The data set is classed as ADME.
Data set [3] concerns the target Acetyl-CoA carboxylase 1 (Rattus norvegicus, UniProt P11497). The data set can be described thus: Inhibition of rat recombinant ACC1.
Data set [4] deals with HepG2. The data set can be described thus: Inhibition of fatty acid synthesis in human HepG2 cells. The data set is classed as functional, cell-based.
The target in data set [5] is Acetyl-CoA carboxylase 1 (Homo sapiens, UniProt Q13085). The data set is described as follows: In vitro inhibition of human recombinant His-tagged ACC1 assessed as malonyl-CoA level.
A short description of data set [6]: Lipophilicity, log D of the compound. In kind it is physicochemical. As to conditions: octanol/water.
Data set [7] addresses T1, Acetyl-CoA carboxylase 2. The data set is described as follows: In vitro inhibition of human recombinant His-tagged ACC2 assessed as malonyl-CoA level.
Data set [8] is filed under the species Rattus norvegicus. The data set can be described thus: Reduction in fatty acid synthesis in Sprague-Dawley rat. In kind it is functional.

Some results are limits rather than exact numbers.

T1 sequence (O00763 whole entry): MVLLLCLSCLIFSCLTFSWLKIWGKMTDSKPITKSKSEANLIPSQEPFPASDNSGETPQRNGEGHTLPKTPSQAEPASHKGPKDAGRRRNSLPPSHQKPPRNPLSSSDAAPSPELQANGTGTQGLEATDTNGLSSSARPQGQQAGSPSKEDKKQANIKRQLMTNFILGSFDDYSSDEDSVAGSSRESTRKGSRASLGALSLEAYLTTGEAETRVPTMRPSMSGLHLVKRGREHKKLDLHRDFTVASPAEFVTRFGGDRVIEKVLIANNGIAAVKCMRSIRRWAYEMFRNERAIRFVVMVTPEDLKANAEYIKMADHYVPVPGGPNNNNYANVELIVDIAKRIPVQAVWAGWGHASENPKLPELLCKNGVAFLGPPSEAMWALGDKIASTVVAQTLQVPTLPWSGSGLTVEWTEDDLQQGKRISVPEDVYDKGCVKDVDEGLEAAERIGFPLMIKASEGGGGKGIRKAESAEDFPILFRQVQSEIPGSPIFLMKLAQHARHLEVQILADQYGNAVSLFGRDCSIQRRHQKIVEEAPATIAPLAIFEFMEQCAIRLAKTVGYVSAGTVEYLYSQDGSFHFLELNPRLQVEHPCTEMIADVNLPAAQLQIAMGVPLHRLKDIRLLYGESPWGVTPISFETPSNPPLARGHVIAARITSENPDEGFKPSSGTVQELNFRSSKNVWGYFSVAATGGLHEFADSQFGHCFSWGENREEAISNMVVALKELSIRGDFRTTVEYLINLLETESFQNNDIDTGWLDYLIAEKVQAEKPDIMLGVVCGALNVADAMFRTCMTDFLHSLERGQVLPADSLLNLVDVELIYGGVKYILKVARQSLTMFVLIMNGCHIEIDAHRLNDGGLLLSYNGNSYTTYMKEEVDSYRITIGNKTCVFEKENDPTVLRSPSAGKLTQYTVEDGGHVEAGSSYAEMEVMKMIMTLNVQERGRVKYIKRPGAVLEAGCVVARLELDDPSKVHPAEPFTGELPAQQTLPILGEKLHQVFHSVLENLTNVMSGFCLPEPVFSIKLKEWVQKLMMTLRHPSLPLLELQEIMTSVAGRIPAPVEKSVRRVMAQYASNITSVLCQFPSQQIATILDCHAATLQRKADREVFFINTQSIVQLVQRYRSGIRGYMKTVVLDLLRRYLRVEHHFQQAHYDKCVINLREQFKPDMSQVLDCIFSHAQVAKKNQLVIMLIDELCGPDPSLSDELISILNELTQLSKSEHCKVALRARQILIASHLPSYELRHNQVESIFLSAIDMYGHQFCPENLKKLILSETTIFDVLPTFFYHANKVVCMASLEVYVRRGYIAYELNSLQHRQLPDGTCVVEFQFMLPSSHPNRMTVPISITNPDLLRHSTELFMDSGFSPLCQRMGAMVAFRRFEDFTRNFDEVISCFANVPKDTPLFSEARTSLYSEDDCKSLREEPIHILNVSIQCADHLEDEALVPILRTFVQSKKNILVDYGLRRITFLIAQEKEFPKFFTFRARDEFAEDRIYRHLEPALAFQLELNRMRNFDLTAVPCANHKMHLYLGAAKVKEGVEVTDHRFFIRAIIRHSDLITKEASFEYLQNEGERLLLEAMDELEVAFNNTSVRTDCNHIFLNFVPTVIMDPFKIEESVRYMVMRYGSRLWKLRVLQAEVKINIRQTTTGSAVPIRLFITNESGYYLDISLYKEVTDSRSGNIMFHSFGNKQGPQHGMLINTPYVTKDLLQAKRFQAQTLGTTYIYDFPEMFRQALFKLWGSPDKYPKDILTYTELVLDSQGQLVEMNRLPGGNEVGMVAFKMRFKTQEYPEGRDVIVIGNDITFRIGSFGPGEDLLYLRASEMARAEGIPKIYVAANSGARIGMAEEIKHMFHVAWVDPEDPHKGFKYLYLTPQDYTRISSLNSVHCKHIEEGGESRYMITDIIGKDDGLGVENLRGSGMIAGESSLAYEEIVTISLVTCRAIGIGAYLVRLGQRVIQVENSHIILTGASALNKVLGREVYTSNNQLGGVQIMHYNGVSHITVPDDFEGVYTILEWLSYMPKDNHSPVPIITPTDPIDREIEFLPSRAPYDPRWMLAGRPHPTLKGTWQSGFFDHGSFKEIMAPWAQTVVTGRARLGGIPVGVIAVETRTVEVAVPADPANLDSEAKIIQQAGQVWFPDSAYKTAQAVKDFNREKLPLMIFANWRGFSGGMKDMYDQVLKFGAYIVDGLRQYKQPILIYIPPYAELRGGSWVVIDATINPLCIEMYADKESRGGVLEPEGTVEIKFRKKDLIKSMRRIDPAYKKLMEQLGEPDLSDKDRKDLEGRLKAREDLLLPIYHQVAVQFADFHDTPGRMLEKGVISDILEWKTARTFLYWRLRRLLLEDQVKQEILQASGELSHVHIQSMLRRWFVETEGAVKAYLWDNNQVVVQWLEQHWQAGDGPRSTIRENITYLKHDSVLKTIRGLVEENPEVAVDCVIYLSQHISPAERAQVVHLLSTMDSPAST

In the case of `Cc1cc(OCC2CC2)ccc1C1CCN(c2ccc(C(C)C(=O)NC3CC3)cc2)CC1` (racemic), the IC50 (usually the concentration needed to halve the response being measured) in data set [1] came out at 80 nM.

On to `CCOc1ccc(N2CC(Oc3ccc([C@H](C)NC(=O)c4cn[nH]c4)cc3)C2)c(C)c1`, for which the IC50 in data set [1] stood at 50 nM. For `Cc1cc2c(cc1C)C(=O)CC1(CCN(C(=O)c3cc(C)c4[nH]ncc4c3)CC1)O2`, in data set [2], the CLint scaled (commonly the capacity of the preparation to metabolise the compound, expressed as a volume cleared per time) amounted to 86 mL/min/kg. The IC50 in data set [3] came out at 25 nM.

As to `COc1ccccc1[C@@H](Cn1c(=O)n(C(C)(C)C(=O)O)c(=O)c2c(C)c(-c3ncco3)sc21)OC(C)C`, in data set [4], the IC50 is less than 100 nM. Consider `CCOC(=O)N1CCN(c2nc(C)nc3sc4c(c23)CCCC4)CC1`, for which the IC50 in data set [5] is 23000 nM. Regarding `CC(C)(C)OC(=O)CC[C@H]1CC[C@H](CNC(=O)c2cc(-c3ccccc3)nc3ccccc23)CC1`, the logD (usually the decadic logarithm of the distribution of all forms, ionised or not, between an organic phase and buffer at a given pH) in data set [6] was found to be 5.9. Consider `COc1ccccc1[C@H](Cn1c(=O)n(C(C)(C)C(=O)O)c(=O)c2c(C)c(-c3ncco3)sc21)OC1CCOCC1` [FIRSOCOSTAT], for which the IC50 was less than 100 nM in data set [4], 1.7 nM in data set [7] and 2.6 nM in data set [5]. The ED50 (commonly the midpoint of the dose-response relation) in data set [8] was less than 0.3 mg/kg. The compound `CC(C)(C)n1cc2c(n1)C(=O)CC1(CCN(C(=O)c3ccc4[nH]ncc4c3)CC1)O2` registered a CLint scaled in data set [2] of no more than 8 mL/min/kg. For the same compound, the log distribution coefficient (logD) in data set [6] was 1.8. Turning to `CCCOc1ccc(C2CCN(c3ccc(C(C)NC(C)=O)cc3F)CC2)c(C)c1` (racemic), the IC50 in data set [1] turned out to be 60 nM.
